Where two headings read alike, the source gives them in different places.
Columns and labels:
Type in all cases: in vivo
[1] = tested on: blackgrass (Alopecurus myosuroides); assay: Test B postemergence; conditions: Alopecurus myosuroides, post-emergence
Method in brief: (§1)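 Visual injury scored 0 (no effect) to 100 (complete control) versus untreated controls after 13 to 15 days in greenhouse. Treatments were pre- or postemergence sprays of surfactant-containing solvent formulations; postemergence plants at 1- to 4-leaf stage, 2 to 18 cm.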

wild oat (Avena fatua) = assay: Test B postemergence; conditions: Avena fatua, post-emergence
Method in brief: as §1

[2] = tested on: lambsquarters (Chenopodium album); assay: Test B pre/postemergence; conditions: Chenopodium album; for pest or weed control at 125 g/ha: 125 g ai/ha; for pest or weed control at 500 g/ha: 500 g ai/ha
Method in brief: as §1

[3] = tested on: Surinam grass (Brachiaria decumbens); assay: Test B pre/postemergence; conditions: Urochloa decumbens; for pest or weed control at 125 g/ha: 125 g ai/ha; for pest or weed control at 500 g/ha: 500 g ai/ha
Method in brief: as §1

corn (Zea mays) = assay: Test B pre/postemergence; conditions: Zea mays
Method in brief: as §1

[4] = tested on: crabgrass (Digitaria sanguinalis); assay: Test B pre/postemergence; conditions: Digitaria sanguinalis; for pest or weed control at 125 g/ha: 125 g ai/ha; for pest or weed control at 500 g/ha: 500 g ai/ha
Method in brief: as §1

[5] = tested on: wheat (Triticum aestivum); assay: Test B pre/postemergence; conditions: Triticum aestivum; for plant injury at 125 g/ha: 125 g ai/ha; for plant injury at 500 g/ha: 500 g ai/ha
Method in brief: as §1

[6] = tested on: velvetleaf (Abutilon theophrasti); assay: Test B pre/postemergence; conditions: Abutilon theophrasti; for pest or weed control at 125 g/ha: 125 g ai/ha; for pest or weed control at 500 g/ha: 500 g ai/ha
Method in brief: as §1

[7] = tested on: barnyardgrass (Echinochloa crus-galli); assay: Test B pre/postemergence; conditions: Echinochloa crus-galli; for pest or weed control at 125 g/ha: 125 g ai/ha; for pest or weed control at 500 g/ha: 500 g ai/ha
Method in brief: as §1

[8] = tested on: cocklebur (Xanthium strumarium); assay: Test B pre/postemergence; conditions: Xanthium strumarium; for pest or weed control at 125 g/ha: 125 g ai/ha; for pest or weed control at 500 g/ha: 500 g ai/ha
Method in brief: as §1

[9] = tested on: morningglory (Ipomoea coccinea); assay: Test B pre/postemergence; conditions: Ipomoea; for pest or weed control at 125 g/ha: 125 g ai/ha; for pest or weed control at 500 g/ha: 500 g ai/ha
Method in brief: as §1

[10] = tested on: giant foxtail (Setaria faberii); assay: Test B pre/postemergence; conditions: Setaria faberi; for pest or weed control at 125 g/ha: 125 g ai/ha; for pest or weed control at 500 g/ha: 500 g ai/ha
Method in brief: as §1

[11] = tested on: pigweed (Amaranthus retroflexus); assay: Test B pre/postemergence; conditions: Amaranthus retroflexus; for pest or weed control at 125 g/ha: 125 g ai/ha; for pest or weed control at 500 g/ha: 500 g ai/ha
Method in brief: as §1

[12] = tested on: duck salad (Heteranthera limosa); assay: Test B flooded paddy test; conditions: Heteranthera limosa, Flood, 1000 g ai/ha; scale 0 to 100; read-out: Plant response rating, Ducksalad
Method in brief: (§2)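 Plants were grown to the 2-leaf stage before treatment, then kept in a greenhouse for 13 to 15 days. Injury was rated visually against untreated controls on a 0 to 100 scale, where 0 is no effect and 100 is complete control.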

[13] = tested on: umbrella sedge (Cyperus difformis); assay: Test B flooded paddy test; conditions: Cyperus difformis, Flood, 1000 g ai/ha; scale 0 to 100; read-out: Plant response rating, Sedge, Umbrella
Method in brief: as §2

rice (Oryza sativa) = assay: Test B flooded paddy test; conditions: Oryza sativa, Flood, 1000 g ai/ha; scale 0 to 100; read-out: Plant response rating, Rice
Method in brief: as §2

[14] = tested on: barnyardgrass (Echinochloa crus-galli); assay: Test B flooded paddy test; conditions: Echinochloa crus-galli, Flood, 1000 g ai/ha; scale 0 (no effect) to 100 (complete control); read-out: Plant response rating, Barnyardgrass
Method in brief: as §2

[15] = pre-emergence, Preemergence, scale 0 to 100 (0 no effect, 100 complete control), read-out: Plant response rating, Wheat

## COC(=O)c1nc(C2CC2)nc(NO)c1Br [Compound 35]
[1]; 125 g ai/ha, scale 0 to 100 (0 no effect, 100 complete control), read-out: Blackgrass plant response rating
  pest or weed control at 125 g/ha: 60%
[1]; 500 g ai/ha, scale 0 to 100, read-out: Plant response rating, Blackgrass
  pest or weed control at 500 g/ha: 70%
Wild oat (Avena fatua); 125 g ai/ha, scale 0 to 100 (0 no effect, 100 complete control), read-out: Oat, Wild plant response rating
  pest or weed control at 125 g/ha: 60%
Wild oat (Avena fatua); 500 g ai/ha, scale 0 to 100, read-out: Plant response rating, Oat, Wild
  pest or weed control at 500 g/ha: 60%
[2]; post-emergence, Postemergence, scale 0 to 100 (0 no effect, 100 complete control), read-out: Lambsquarters plant response rating
  pest or weed control at 125 g/ha: 90%
[2]; post-emergence, Postemergence, scale 0 to 100, read-out: Plant response rating, Lambsquarters
  pest or weed control at 500 g/ha: 100%
[2]; pre-emergence, Preemergence, scale 0 to 100 (0 no effect, 100 complete control), read-out: Plant response rating, Lambsquarters
  pest or weed control at 125 g/ha: 90%
[2]; pre-emergence, Preemergence, scale 0 to 100 (0 no effect, 100 complete control), read-out: Lambsquarters plant response rating
  pest or weed control at 500 g/ha: 100%
[3]; post-emergence, Postemergence, scale 0 to 100 (0 no effect, 100 complete control), read-out: Surinam Grass plant response rating
  pest or weed control at 125 g/ha: 20%
[3]; post-emergence, Postemergence, scale 0 to 100, read-out: Plant response rating, Surinam Grass
  pest or weed control at 500 g/ha: 80%
[3]; pre-emergence, Preemergence, scale 0 to 100 (0 no effect, 100 complete control), read-out: Plant response rating, Surinam Grass
  pest or weed control at 125 g/ha: 10%
[3]; pre-emergence, Preemergence, scale 0 to 100 (0 no effect, 100 complete control), read-out: Surinam Grass plant response rating
  pest or weed control at 500 g/ha: 60%
Corn (Zea mays); post-emergence, Postemergence, 125 g ai/ha, scale 0 to 100 (0 no effect, 100 complete control), read-out: Corn plant response rating
  plant injury at 125 g/ha: 0%
Corn (Zea mays); post-emergence, Postemergence, 500 g ai/ha, scale 0 to 100
  Corn plant response rating (crop injury, 0 = no effect, 100 = complete kill) at 500 g/ha: 60%
Corn (Zea mays); pre-emergence, Preemergence, 125 g ai/ha, scale 0 to 100 (0 no effect, 100 complete control)
  Corn plant response rating (crop injury, 0 = no effect, 100 = complete kill) at 125 g/ha: 0%
Corn (Zea mays); pre-emergence, Preemergence, 500 g ai/ha, scale 0 to 100 (0 no effect, 100 complete control), read-out: Corn plant response rating
  plant injury at 500 g/ha: 50%
[4]; post-emergence, Postemergence, scale 0 to 100 (0 no effect, 100 complete control), read-out: Crabgrass plant response rating
  pest or weed control at 125 g/ha: 20%
[4]; post-emergence, Postemergence, scale 0 to 100, read-out: Plant response rating, Crabgrass
  pest or weed control at 500 g/ha: 50%
[4]; pre-emergence, Preemergence, scale 0 to 100 (0 no effect, 100 complete control), read-out: Plant response rating, Crabgrass
  pest or weed control at 125 g/ha: 30%
[4]; pre-emergence, Preemergence, scale 0 to 100 (0 no effect, 100 complete control), read-out: Crabgrass plant response rating
  pest or weed control at 500 g/ha: 80%
[5]; post-emergence, Postemergence, scale 0 to 100 (0 no effect, 100 complete control), read-out: Wheat plant response rating
  plant injury at 125 g/ha: 20%
[5]; post-emergence, Postemergence, scale 0 to 100, read-out: Plant response rating, Wheat
  plant injury at 500 g/ha: 60%
[5]; [15]
  plant injury at 125 g/ha: 20%
  plant injury at 500 g/ha: 50%
[6]; post-emergence, Postemergence, scale 0 to 100 (0 no effect, 100 complete control), read-out: Velvetleaf plant response rating
  pest or weed control at 125 g/ha: 50%
[6]; post-emergence, Postemergence, scale 0 to 100, read-out: Plant response rating, Velvetleaf
  pest or weed control at 500 g/ha: 90%
[6]; pre-emergence, Preemergence, scale 0 to 100 (0 no effect, 100 complete control), read-out: Plant response rating, Velvetleaf
  pest or weed control at 125 g/ha: 70%
[6]; pre-emergence, Preemergence, scale 0 to 100 (0 no effect, 100 complete control), read-out: Velvetleaf plant response rating
  pest or weed control at 500 g/ha: 90%
[7]; post-emergence, Postemergence, scale 0 to 100 (0 no effect, 100 complete control), read-out: Barnyardgrass plant response rating
  pest or weed control at 125 g/ha: 40%
[7]; post-emergence, Postemergence, scale 0 to 100, read-out: Plant response rating, Barnyardgrass
  pest or weed control at 500 g/ha: 90%
[7]; pre-emergence, Preemergence, scale 0 to 100 (0 no effect, 100 complete control), read-out: Plant response rating, Barnyardgrass
  pest or weed control at 125 g/ha: 10%
[7]; pre-emergence, Preemergence, scale 0 to 100 (0 no effect, 100 complete control), read-out: Barnyardgrass plant response rating
  pest or weed control at 500 g/ha: 80%
[8]; post-emergence, Postemergence, scale 0 to 100 (0 no effect, 100 complete control), read-out: Cocklebur plant response rating
  pest or weed control at 125 g/ha: 30%
[8]; post-emergence, Postemergence, scale 0 to 100, read-out: Plant response rating, Cocklebur
  pest or weed control at 500 g/ha: 100%
[8]; pre-emergence, Preemergence, scale 0 to 100 (0 no effect, 100 complete control), read-out: Plant response rating, Cocklebur
  pest or weed control at 125 g/ha: 60%
[8]; pre-emergence, Preemergence, scale 0 to 100 (0 no effect, 100 complete control), read-out: Cocklebur plant response rating
  pest or weed control at 500 g/ha: 90%
[9]; post-emergence, Postemergence, scale 0 to 100 (0 no effect, 100 complete control), read-out: Morningglory plant response rating
  pest or weed control at 125 g/ha: 70%
[9]; post-emergence, Postemergence, scale 0 to 100, read-out: Plant response rating, Morningglory
  pest or weed control at 500 g/ha: 100%
[9]; pre-emergence, Preemergence, scale 0 to 100 (0 no effect, 100 complete control), read-out: Plant response rating, Morningglory
  pest or weed control at 125 g/ha: 70%
[9]; pre-emergence, Preemergence, scale 0 to 100 (0 no effect, 100 complete control), read-out: Morningglory plant response rating
  pest or weed control at 500 g/ha: 100%
[10]; post-emergence, Postemergence, scale 0 to 100 (0 no effect, 100 complete control), read-out: Foxtail, Giant plant response rating
  pest or weed control at 125 g/ha: 10%
[10]; post-emergence, Postemergence, scale 0 to 100, read-out: Plant response rating, Foxtail, Giant
  pest or weed control at 500 g/ha: 60%
[10]; pre-emergence, Preemergence, scale 0 to 100 (0 no effect, 100 complete control), read-out: Plant response rating, Foxtail, Giant
  pest or weed control at 125 g/ha: 0%
[10]; pre-emergence, Preemergence, scale 0 to 100 (0 no effect, 100 complete control), read-out: Foxtail, Giant plant response rating
  pest or weed control at 500 g/ha: 70%
[11]; post-emergence, Postemergence, scale 0 to 100 (0 no effect, 100 complete control), read-out: Pigweed plant response rating
  pest or weed control at 125 g/ha: 70%
[11]; post-emergence, Postemergence, scale 0 to 100, read-out: Plant response rating, Pigweed
  pest or weed control at 500 g/ha: 100%
[11]; pre-emergence, Preemergence, scale 0 to 100 (0 no effect, 100 complete control), read-out: Plant response rating, Pigweed
  pest or weed control at 125 g/ha: 80%
[11]; pre-emergence, Preemergence, scale 0 to 100 (0 no effect, 100 complete control), read-out: Pigweed plant response rating
  pest or weed control at 500 g/ha: 100%
[12]
  pest or weed control at 1000 g/ha: 0%
[13]
  pest or weed control at 1000 g/ha: 0%
Rice (Oryza sativa)
  plant injury at 1000 g/ha: 0%
[14]
  pest or weed control at 1000 g/ha: 0%
